# Source: paper PMC12378234, “Enzyme-mediated aminoglycoside resistance without target mimicry” (Communications Chemistry, 2025)
# Columns and labels:
# Experiment in all cases: Antibiotic susceptibility testing, endpoint MIC assay
# Assay type in all cases: cell-based
# [1] = test system: BL21(DE3) E. coli transformed with pUCP18 vector expressing AAC(3)-IIIa; details: Escherichia coli, 20 h, read-out: Endpoint minimum inhibitory concentration (MIC)
# Procedure: (§1) Ten milliliters of cultures of LB containing […] ampicillin were inoculated from glycerol stocks of transformed BL21(DE3) E. coli containing genes expressing the proteins of interest in pUCP18 vectors. Experiments were performed using 6xHis-tagged fusion-proteins, as well as untagged wild-type proteins. These cultures were incubated at 37 °C with 200 rpm agitation for 16 h. Turbidity was measured through OD600 with a NanoDrop OneC Spectrometer (Thermo Scientific). From the initial cultures, secondary 10 mL cultures were prepared with OD600 values of 0.1. These cultures were grown until OD600 values of 0.4–0.6 were reached and diluted to bring all cultures to the same OD600. Cultures were induced with 1 mM Isopropyl β-D-1-thiogalactopyranoside and incubated for 4 h. Cultures were diluted to 1 × 10^6 cells mL^−1. Two microliters of culture was added to 198 μL of LB with an appropriate aminoglycoside titration concentration. The formulated 96-well culture plate (Sarstedt) was incubated at 37 °C with 120 rpm orbital agitation. The remainder of the bacterial culture was immediately lysed and processed for Western blotting. OD600 was measured after 20 h using the Molecular Devices Spectra MAX 190 plate reader.
# [2] = test system: BL21(DE3) E. coli transformed with pUCP18 vector expressing AAC(3)-Ia; details: Escherichia coli, 20 h, read-out: Endpoint minimum inhibitory concentration (MIC)
# Procedure: as §1
# [3] = test system: BL21(DE3) E. coli transformed with pUCP18 vector expressing AAC(3)-XIa; details: Escherichia coli, 20 h, read-out: Endpoint minimum inhibitory concentration (MIC)
# Procedure: as §1
# [4] = test system: empty pUCP18 vector transformed E. coli; details: Escherichia coli; empty pUCP18 vector control E. coli; after 20 h of growth; read-out: Endpoint minimum inhibitory concentration (MIC)
# Procedure: as §1
smiles,measurement,setting,value
"CN[C@@H]1[C@@H](O)[C@@H](O[C@@H]2[C@@H](O)[C@H](O[C@H]3OC(CN)=CC[C@H]3N)[C@@H](N)C[C@H]2N)OC[C@]1(C)O [Sisomicin, sisomicin]",MIC,[1],12 µg/mL
same,MIC,[2],6 µg/mL
same,MIC,[3],12 µg/mL
same,MIC,[4],6 µg/mL
